Test results taken from patent publication US6759385B1, “Methods to treat undesirable immune responses” (Regents of the University of Minnesota, priority 1997, dated 2004).

How the values were obtained:
[1] = system: anti-TAChR and anti-peptide IgG subclasses; experiment: ELISA of anti-TAChR and anti-peptide IgG subclasses (Example III); type: in vivo, mouse; details: IL-4 KO mice, nasal α epitope pool
Procedure: Assay of Anti-TAChR and Anti-peptide IgG Subclasses. The relative concentration of IgG subclasses of anti-TAChR and anti-peptide antibodies in the sera of peptide- and sham-treated mice was measured by ELISA after immunization with TAChR. Pooled sera from three-four mice that had received identical treatments was used. The sera used in this assay was obtained at the end of the observation period (10 weeks after beginning of the anti-TAChR immunization).
Ninety-six well plates (Nunc, Karstrup, Denmark) were washed extensively and incubated as follows: 4 hours with a 10 μg/ml solution of TAChR or of individual peptides Tα150-169, Tα181-200 and Tα360-378 in 0.1 M Na phosphate buffer, pH 9.5 (two wells for each antigen), 1 hr with PBS plus 3% bovine serum albumin (BSA), 2 hours with mouse serum (serial dilutions from 1:100 to 1:40,000 in PBS plus 3% BSA), 1 hr with a dilution 1:1000 in PBS plus 3% BSA of goat antibody specific for the total IgG, or IgGl, or IgG2a, or IgG2b or IgG3 (Mouse Monoclonal Isotyping Kit, Sigma, St. Louis, Mo.), and 30 minutes with a 1:3000 dilution of peroxidase-conjugate rabbit anti-goat IgG (Sigma) in PBS plus 3% BSA. The plates were washed, and developed them for 20-60 minutes with ABTS peroxidase substrate system (Kirkegaard & Perry Laboratories Inc., Gaithersburg, Md.). […] The OD was read at 405 nanometers. […]

[2] = system: serum anti-TAChR antibody; experiment: Anti-AChR antibody assay by RIPA (Example I); type: in vivo, mouse
Description: Sera was obtained from the mice after each clinical testing. […] The antibody concentration is expressed as μM precipitated ^125I-αBTX.

[3] = system: EMG in B6 mice immunized with TAChR; experiment: Subcutaneous tolerization, prevention protocol, EMG symptoms (Example IV); type: in vivo, mouse
Procedure: B6 mice (Jackson Laboratory, Bar Harbor, Me.) were injected s.c. with 100 μl of PBS containing increasing amounts of a pool of the same amount in weight of each of the three epitope peptides Tα150-169, Tα180-200 and Tα360-378 (‘peptide pool’), or 200 μg of Tα150-169 alone, or 100 μl of PBS containing 0.1% Triton X-100 and 10 μg of solubilized TAChR. Two different treatment schedules were used, referred to as prevention and post-priming protocols. In the prevention protocol, the peptides or solubilized TAChR were administered twice per week for 14 weeks, starting 2 weeks before the beginning of the immunization with TAChR. In the post-priming protocol, peptides or solubilized TAChR were administered twice per week for […], starting 8 weeks after the beginning of the TAChR immunization. Control mice received 100 μl of peptide-free PBS, following the same schedules.
Immunization 8-10 week old mice were immunized by s.c. injections, along the back and at the base of the tail, of TAChR (a total of 50 μg in 100 μl of PBS for each immunization) emulsified in an equal volume of CFA for the first injection, and IFA for the following two boosts. The mice were injected for a total of three times at 3-4 week intervals. At the end of the observation period, the mice received a third boost, and were sacrificed 5-7 days later. Control mice were injected with clean PBS in the appropriate adjuvant.
Evaluation of the symptoms of EMG The EMG symptoms were quantified using a forced exercise test sensitized by i.p. injection of a minute amount of pancuronium bromide (0.03 mg/kg) just before the test (Karachunski et al., 1995). The mouse hangs from a grid suspended above a soft padding, and the time it takes the mouse to fall three times (‘holding time’) was measured. The test is parametric, and gives a quantitative assessment of the mouse weakness. The myasthenic nature of the weakness was verified by injecting i.p. edrophonium chloride (Reversol, Organon, West Orange, N.J.), which is a cholinesterase inhibitor. […] The mice were tested without knowledge of their treatment.
The holding time of normal mice was 10.4±2.1 minutes (n=99). Mice with holding times of 8 minutes or longer were considered normal. Mice with holding times less than 6.2 minutes (the holding time of normal mice minus two SD) were considered to have fully developed EMG. Holding times of 6.2-8 minutes were considered to potentially indicate initial EMG. Normal or sham-immunized mice had occasionally holding times of 6.2-8 minutes, but never less than 6.2 minutes. Paralyzed mice and mice that died of respiratory paralysis are indicated as having holding time of 0 minutes.

spleen CD4+ T-cells = experiment: Lymphocyte proliferation assay, spleen CD4+ T-cells (Example IV); type: cell-based, mouse
Procedure: Lymphocyte proliferation assay. Five to seven days after the last TAChR immunization, CD4^+ T-cells (Bellone et al., 1991a) were purified from the pooled spleens of three to four mice that had received identical treatments. Irradiated (3000 rad) spleen cells from non-immunized mice were diluted as needed in RPMI-1640 (Gibco, Grand Island, N.Y.) supplemented with 10% heat inactivated fetal calf serum (Gibco), 50 μM 2-mercapto-ethanol, 1 mM L-glutamine, 10 mM HEPES, 1 mM sodium pyruvate, 100 U/ml penicillin and 100 μg/ml streptomycin (culture medium) and used as APC. The spleen CD4^+ T-cells (1×10^6/ml in culture medium, 100×1/well) were seeded in triplicate in 96 flat-bottom well plates containing 100×1 of 5×10^6/ml APC. One of the following Ag was added: 10 μg/ml PHA (Sigma); 5 or 10 μg/ml TAChR; 5 or 10 μg/ml of the individual epitope peptides. The concentrations of TAChR and epitope peptides are in the saturating range of the dose dependence curve (Bellone et al., 1991a), and yielded consistent results. Controls were triplicate wells containing CD4^+ cells and APC without any Ag, or with the control peptide (10 μg/ml). After 4 days the cells were labeled for 16 hours with ^3H-thymidine (1 μCi per well, specific activity 6.7 Ci/mmol, Dupont, Boston, Mass.) and harvested (Titertek, Skatron, Sterling, Va.). The ^3H-thymidine incorporation was measured by liquid scintillation, and represented the results as stimulation indexes (S.I.: the ratio between the cpm obtained in the presence of a given stimulus, and the average cpm obtained for non-stimulated control cultures).

[4] = s.c. 200 μg/injection, second experiment

With “peptide Tα150-169: synthetic peptide corresponding to residues 150-169 of the TAChR α subunit (TYDGTKVSISPESDRPDLST; UniProt P02710 174-193, looked up, fragment)” the “anti-peptide IgG2a” value [1] was “moderate synthesis of IgG2a”, the “serum anti-TAChR antibody concentration compared with sham-treated” value ([2]; as early as 4 weeks after first TAChR immunization) was “significantly lower concentrations” and the “serum anti-TAChR antibody concentration” value ([2]; at ten weeks, nasal protocol B, μM precipitated 125I-αBTX) was 5.5 ± 1.5 µM. The “mice with EMG at 8 weeks” value [3, 4] was “One mouse”, the “prevention of EMG” value [3, 4] was “prevented EMG effectively” and the “holding times compared with sham-tolerized groups” value ([3]; s.c. prevention protocol) was “significantly longer holding times”. The “response of CD4+ cells from sham-tolerized mice to the peptide” value (spleen CD4+ T-cells; TAChR-immunized B6 mice, 5 or 10 μg/ml) was “responded consistently” and the “response to Tα150-169 of tolerized mice” value (spleen CD4+ T-cells; s.c. prevention protocol) was “never responded”.
